Experimental data from patent US9115093B2, “Substituted bicyclic dihydropyrimidinones and their use as inhibitors of neutrophil elastase activity” (Boehringer Ingelheim International GmbH, priority 2013, dated 2015).

Tests used:
neutrophil elastase [1] = molecular target: T1, neutrophil elastase (Homo sapiens, UniProt P08246); experiment: Human Neutrophil Elastase Assay; assay type: biochemical; parameters: purchased Calbiochem 324681; settings: substrate MeOSuc-Ala-Ala-Pro-Val-AMC, pH 7.5, room temperature
T1 sequence (P08246 30-247 limits assumed): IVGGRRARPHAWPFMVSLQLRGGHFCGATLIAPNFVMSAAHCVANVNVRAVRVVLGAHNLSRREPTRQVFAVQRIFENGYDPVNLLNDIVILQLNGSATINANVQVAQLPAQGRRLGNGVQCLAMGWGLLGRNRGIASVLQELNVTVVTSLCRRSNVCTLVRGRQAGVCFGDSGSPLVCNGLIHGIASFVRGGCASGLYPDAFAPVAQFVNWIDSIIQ
Outline: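 Readout: AMC fluorescence (ex 380, em 460 nm) after 60 min room-temperature reaction with 250 nM MeOSuc-AAPV-AMC, following 15 min compound–enzyme preincubation. Buffer: Tris/NaCl pH 7.5, 0.01% BSA.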

neutrophil elastase [2] = molecular target: T1, neutrophil elastase; experiment: Neutrophil elastase inhibitory activity in human plasma; assay type: biochemical; parameters: The stimulated blood is centrifuged to generate the neutrophil elastase enriched plasma; from tissue; host or cells: plasma from zymosan-stimulated citrated whole blood of healthy human donors; settings: neutrophil elastase enriched human plasma (zymosan-stimulated blood), substrate MeOSuc-Ala-Ala-Pro-Val-AMC
Experimental: Assay for the Determination of Neutrophil Elastase Inhibitory Activity in Human Plasma
Citrated blood from human healthy donors is mixed with zymosan suspension and incubated at room temperature. This leads to the stimulation of neutrophils and the release of neutrophil elastase into the plasma. The stimulated blood is centrifuged to generate the neutrophil elastase enriched plasma.
Preparation of Zymosan Working Solution:
• single 45 ml blood sample is taken into a 50 ml tube containing citrate (3.13%, 5 mL) and the tube is gently inverted 4 times. • Immediately after blood sampling, zymosan working solution (5 mL) is added. • After the addition of zymosan working solution, the tubes are capped, mixed gently and incubated at 22° C. for 15 min on a shaker at 20 rpm. • Make 10 ml aliquots after the incubation time. • Centrifuge the 15 ml tubes at 800 g for […] at 4° C. in a Jouan centrifuge. • Harvest the plasma and make 1-5 ml aliquots. • Store the plasma at −80° C.
Various concentrations of the neutrophil elastase inhibitor are incubated with plasma. Subsequently, the enzyme activity is measured using the fluorogenic substrate MeOSuc-Ala-Ala-Pro-Val-AMC (Bachem Cat. No. 1-1270, substrate concentration: 250 μM, pH 7.5, 25 mM TRIS buffer, 250 mM NaCl) in analogous fashion as described for the human neutrophil assay. A dose response curve is generated to calculate the EC50 of the inhibitor. The analysis of the data is performed by the calculation of the percentage of fluorescence in the presence of the test compound compared to the fluorescence of the vehicle control after subtracting the background fluorescence: An inhibitor of the neutrophil elastase enzyme will give values between 100% control (no inhibition) and 0% control (complete inhibition). The human plasma shift of selected compounds can be calculated using the following equation: Human plasma shift=(EC50 in human plasma assay)/(IC50 in human neutrophil elastase assay) The EC50 values of selected compounds in the human plasma assay described above are listed in Table 14.

[3] = Metabolic stability with human hepatocytes; assay type: in vitro ADME; settings: human hepatocyte suspension, 1 μM, scaled with well stirred model
Experimental: Assay for the Determination of Metabolic Stability with Human Hepatocytes
The metabolic degradation of the test compound is assayed in a human hepatocyte suspension. Human hepatocytes (typically cryopreserved) are incubated in an appropriate buffer system (e.g. Dulbecco's modified eagle medium plus 3.5 μg glucagon/500 mL, 2.5 mg insulin/500 mL and 3.75 mg/500 mL hydrocortison) containing 5% species serum. Following a (typically) […] preincubation in an incubator (37° C., 10% CO2), 5 μl of test compound solution (80 μM; from 2 mM stock solution in DMSO diluted 1:25 with medium) are added into 395 μl hepatocyte suspension (cell density in the range 0.25-5*10^6 cells/mL, typically 1*10^6 cells/mL; final concentration of test compound 1 μM, final DMSO concentration […]). The cells are incubated for six hours (incubator, orbital shaker) and samples (25 μl) are taken at 0, 0.5, 1, 2, 4 and 6 hours. Samples are transferred into acetonitrile and pelleted by centrifugation (5 min). The supernatant is transferred to a new 96-deepwell plate, evaporated under nitrogen and resuspended. The decline of parent compound is analyzed by LC-MS/MS.
The intrinsic clearance CL_[…] is calculated as follows: CL_[…]=Dose/AUC=(C0/CD)/(AUD+clast/k)*1′000/60 (C0: initial concentration in the incubation [μM], CD: cell density of vital cells [10^6 cells/mL], AUD: area under the data [μM*h], clast: concentration of last data point [μM], k: slope of the regression line for parent decline [h^−1])
The calculated in vitro hepatic intrinsic clearance can be scaled up to the intrinsic in vivo hepatic clearance and used to predict hepatic in vivo blood clearance (CL) by the use of a is liver model (well stirred model): CL_[…]_INVIVO [ml/min/kg]=(CL_[…] [μL/min/10^6 cells]* hepatocellularity[10^6 cells/g liver]*liver factor[g/kg bodyweight])/1′000 CL[ml/min/kg]=CL_[…]_INVIVO [ml/min/kg]*hepatic blood flow [ml/min/kg]/(CL_[…]_INVIVO [ml/min/kg]+hepatic blood flow [ml/min/kg]) Qh[%]=CL[ml/min/kg]/hepatic blood flow[ml/min/kg]) (Hepatocellularity, human: 120*10^6 cells/g liver; lver factor, human: 25.7 g/kg bodyweight; blood flow, human: 21 ml/(min*kg))
The predicted human hepatic in vivo blood clearance (CL) of selected compounds in the metabolic stability assay described above are listed in Table 16.

For `N#Cc1ccc(C2C3=C(CCCC3=O)N(c3cccc(C(F)(F)F)c3)C(=O)N2C(=O)NCCO)cc1` (centres unmarked) [Example 39.3], the IC50 (neutrophil elastase [1]) was < 1 nM and the EC50 (neutrophil elastase [2]) was 6 nM.

For `CS(=O)(=O)CCNC(=O)N1C(=O)N(c2cccc(C(F)(F)F)c2)C2=C(C(=O)CCC2)C1c1ccc(C#N)cc1` (centres unmarked) [Example 39.19], the “CL (predicted human hepatic in vivo blood clearance)” value [3] was 0 mL/min/kg, the IC50 (neutrophil elastase [1]) was < 1 nM and the EC50 (neutrophil elastase [2]) was 9 nM.

With `CC(C)NC(=O)N1C(=O)N(c2cccc(C(F)(F)F)c2)C2=C(C(=O)CCC2)[C@H]1c1ccc(C#N)cc1S(C)(=O)=O` [Example 75.3] the “CL (predicted human hepatic in vivo blood clearance)” value [3] was 0 mL/min/kg, the IC50 (neutrophil elastase [1]) was < 1 nM and the EC50 (neutrophil elastase [2]) was 1 nM.

For `CS(=O)(=O)c1cc(C#N)ccc1[C@@H]1C2=C(CCCC2=O)N(c2cccc(C(F)(F)F)c2)C(=O)N1C(=O)NCC(F)F` [Example 75.7], the “CL (predicted human hepatic in vivo blood clearance)” value [3] was 0 mL/min/kg, the IC50 (neutrophil elastase [1]) was < 1 nM and the EC50 (neutrophil elastase [2]) was 1 nM.
